Measurements reported in publication PMC11596392, “Enhanced Antibacterial, Anti-Inflammatory, and Antibiofilm Activities of Tryptophan-Substituted Peptides Derived from Cecropin A-Melittin Hybrid Peptide BP100” (Molecules, 2024).
Where no end group is shown, it is not given here.

Assays:
[1] = system: preformed MDRPA (CCARM 2095) biofilms; format: cell-based, multidrug-resistant Pseudomonas aeruginosa; settings: 24 h treatment; for MBEC50: 50% eradication; for MBEC90: 90% eradication
Protocol: While preventing biofilm formation on surfaces is crucial, treating established biofilm infections presents a significant challenge due to the extracellular polymeric substance (EPS) matrix hindering antibiotic penetration and the high cell density within mature biofilms. To address this challenge, we evaluated the ability of BP100 and its analogs to eradicate established MDRPA biofilms over a 24 h period. The minimum biofilm eradication concentration (MBEC90) was determined using crystal violet staining as the lowest concentration that reduced biomass by more than 90%. Among these peptides, BP5, BP6, BP7, BP8, BP9, BP11, and BP13 eradicated preformed MDRPA biofilms by more than 90% at a concentration of 8 μM (Figure 3c,d and Table 3).
The minimal biofilm eradication concentration (MBEC) for peptides against the multidrug-resistant Pseudomonas aeruginosa (MDRPA) (CCARM 2095) strain was assessed using the Calgary Biofilm Device (CBD), supplied by Innovotech, Edmonton, AB, Canada. A bacterial suspension with a density of (1 × 10^6) CFU/mL in (150 µL) of Luria–Bertani (LB) media was dispensed into each well of a 96-well microtiter plate, which was equipped with a peg lid (Innovotech, product code: 19111). This plate was incubated at 37 °C for 24 h with agitation at 110 rpm, promoting biofilm formation on the pegs. Subsequently, the peg lid was washed with phosphate-buffered saline (PBS, 0.01 M) and relocated to a fresh plate containing varying peptide concentrations (200 µL per well). The biofilms were then subjected to these peptides under the same incubation conditions. After another PBS rinse, the peg lid was moved to a recovery plate filled with (200 µL) of LB media per well. To detach the biofilms from the pegs, the recovery plate underwent sonication in a water bath for 10 to 15 min. Finally, the recovery plate was incubated at 37 °C for 24 h with agitation at 110 rpm, allowing any surviving bacteria to proliferate and cause turbidity. The MBEC is defined as the lowest concentration of peptides that inhibited turbidity formation in the recovery plate in comparison to sterility controls. This experiment was conducted in triplicate, and the median value from each trial was recorded.

[2] = system: S. typhimurium (KCTC 1926); format: cell-based, Salmonella typhimurium; settings: broth microdilution in MHB, 37 °C, 24 h, 100% inhibition of growth
Protocol: (§1) The antibacterial efficacy of the synthesized peptides was evaluated by determining the minimal inhibitory concentrations (MICs) against six standard bacterial strains and five drug-resistant bacterial strains using the Clinical and Laboratory Standards Institute (CLSI) microdilution method. Melittin served as the positive control.
(§2) The minimal inhibitory concentrations (MICs) of the peptides against bacterial strains were determined using a modified broth-microdilution method in accordance with the National Committee for Clinical Laboratory Standards (NCCLS) guidelines. Overnight cultures were diluted in cation-adjusted Mueller–Hinton Broth (MHB) to achieve an inoculum density of 2 × 10^6 CFU/mL. A two-fold serial dilution of the peptide solution (100 μL) was introduced into microtiter plates, followed by the addition of 100 μL of bacterial suspension. The plates were then incubated at 37 °C for 24 h to determine the MICs. Wells containing only culture media served as negative controls, while those with added bacteria functioned as positive controls. The MIC, expressed in μM, was defined as the lowest peptide concentration that prevented visible bacterial growth. This protocol was also employed to determine MICs in the presence of physiological salts (150 mM of NaCl, 4.5 mM of KCl, 6 μM of NH4Cl, 1 mM of MgCl2, 2.5 mM of CaCl2, and 4 μM of FeCl3) and 20% human serum to assess the peptides’ efficacy under conditions more closely resembling physiological environments. All experiments were conducted in triplicate and repeated three times independently to ensure reproducibility and statistical significance of the results.

S. aureus (KCTC 1621) = format: cell-based, Staphylococcus aureus; settings: broth microdilution in MHB, 37 °C, 24 h, 100% inhibition of growth
Protocol: as §1, §2

[3] = system: S. epidermidis (KCTC 1917); format: cell-based, Staphylococcus epidermidis; settings: broth microdilution in MHB, 37 °C, 24 h, 100% inhibition of growth
Protocol: as §1, §2

[4] = system: sheep red blood cells (sRBCs); assay: Hemolytic activity assay; format: cell-based; settings: 4% (v/v) sheep red blood cells in PBS, 1 h, 37 °C; 1 to 256 μM tested
Protocol: To assess toxicity in mammalian cells, we evaluated the hemolytic activity of the peptides on sheep red blood cells (sRBCs). […] The therapeutic index (TI), a measure commonly employed to evaluate the cell selectivity of antibacterial agents, was calculated as the ratio of the concentration causing 10% hemolysis of sRBCs (HC10) to the GM [19, 20, 21, 22].
The hemolytic activity of the peptides was tested through hemolysis assay of sheep red blood cells (sRBCs). The sRBCs were diluted in PBS to achieve a 4% (v/v) concentration. Subsequently, 100 μL of peptide solutions, ranging from 1 to 256 μM, was dispensed into a 96-well plate containing an equal volume of the erythrocyte suspension. After incubating for 1 h at 37 °C and centrifuging at 1000× g for 10 min, 100 μL of the supernatant was transferred to a new 96-well plate. Hemoglobin release was quantified using a microplate reader at a wavelength of […]. The percentage of hemolysis was calculated using percentage hemolysis = 100 × [[…]], where A represents the absorbance of the peptide-treated sample at 540 nm, A0 corresponds to the absorbance value representing 0% hemolysis in PBS, and At corresponds to the absorbance value representing 100% hemolysis in 0.1% Triton X-100.

E. coli (KCTC 1682) = format: cell-based, Escherichia coli; settings: broth microdilution in MHB, 37 °C, 24 h, 100% inhibition of growth
Protocol: as §1, §2

MRSA (CCARM 3090) = format: cell-based, methicillin-resistant Staphylococcus aureus; settings: broth microdilution in MHB, 37 °C, 24 h, 100% inhibition of growth
Protocol: as §1, §2

MRSA (CCARM 3089) = format: cell-based, methicillin-resistant Staphylococcus aureus; settings: broth microdilution in MHB, 37 °C, 24 h, 100% inhibition of growth
Protocol: as §1, §2

B. subtilis (KCTC 3068) = format: cell-based, Bacillus subtilis; settings: broth microdilution in MHB, 37 °C, 24 h, 100% inhibition of growth
Protocol: as §1, §2

VREF (ATCC 51559) = format: cell-based, vancomycin-resistant Enterococcus faecium; settings: broth microdilution in MHB, 37 °C, 24 h, 100% inhibition of growth
Protocol: as §1, §2

Compound	MBEC50 [1] [µM]	MBEC90 [1] [µM]	Minimal Inhibitory Concentration (MIC) [2] [µM]	Minimal Inhibitory Concentration (MIC) (S. aureus (KCTC 1621)) [µM]	Minimal Inhibitory Concentration (MIC) [3] [µM]	HC10 (peptide concentration that caused 10% hemolysis) [4] [µM]	Minimal Inhibitory Concentration (MIC) (E. coli (KCTC 1682)) [µM]	Minimal Inhibitory Concentration (MIC) (MRSA (CCARM 3090)) [µM]	Minimal Inhibitory Concentration (MIC) (MRSA (CCARM 3089)) [µM]	Minimal Inhibitory Concentration (MIC) (B. subtilis (KCTC 3068)) [µM]	Minimal Inhibitory Concentration (MIC) (VREF (ATCC 51559)) [µM]
CC[C@H](C)[C@H](NC(=O)[C@H](CCCCN)NC(=O)[C@H](CCCCN)NC(=O)[C@H](Cc1c[nH]c2ccccc12)NC(=O)[C@H](CC(C)C)NC(=O)[C@H](CCCCN)NC(=O)[C@@H](N)CCCCN)C(=O)N[C@@H](CC(C)C)C(=O)N[C@@H](CCCCN)C(=O)N[C@@H](Cc1ccc(O)cc1)C(=O)N[C@@H](CC(C)C)C(N)=O [BP1]	8	16	8	8	8	>256	8	64	32	8	64
CC(C)C[C@H](NC(=O)[C@H](Cc1ccc(O)cc1)NC(=O)[C@H](CCCCN)NC(=O)[C@H](CC(C)C)NC(=O)[C@H](Cc1c[nH]c2ccccc12)NC(=O)[C@H](CCCCN)NC(=O)[C@H](CCCCN)NC(=O)[C@H](Cc1ccccc1)NC(=O)[C@H](CC(C)C)NC(=O)[C@H](CCCCN)NC(=O)[C@@H](N)CCCCN)C(N)=O [BP2]	16 to 32	32	8	4	2	>256	2	16	16	8	128
CC[C@H](C)[C@H](NC(=O)[C@H](CCCCN)NC(=O)[C@H](CCCCN)NC(=O)[C@H](Cc1ccccc1)NC(=O)[C@H](CC(C)C)NC(=O)[C@H](CCCCN)NC(=O)[C@@H](N)CCCCN)C(=O)N[C@@H](Cc1c[nH]c2ccccc12)C(=O)N[C@@H](CCCCN)C(=O)N[C@@H](Cc1ccc(O)cc1)C(=O)N[C@@H](CC(C)C)C(N)=O [BP3]	16	32	4	8	8	>256	8	64	64	16	64
CC[C@H](C)[C@H](NC(=O)[C@H](CCCCN)NC(=O)[C@H](CCCCN)NC(=O)[C@H](Cc1ccccc1)NC(=O)[C@H](CC(C)C)NC(=O)[C@H](CCCCN)NC(=O)[C@@H](N)CCCCN)C(=O)N[C@@H](CC(C)C)C(=O)N[C@@H](CCCCN)C(=O)N[C@@H](Cc1c[nH]c2ccccc12)C(=O)N[C@@H](CC(C)C)C(N)=O [BP4]	8	32	2	4	8	>256	4	64	64	4	16
CC[C@H](C)[C@H](NC(=O)[C@H](CCCCN)NC(=O)[C@H](CCCCN)NC(=O)[C@H](Cc1ccccc1)NC(=O)[C@H](CC(C)C)NC(=O)[C@H](CCCCN)NC(=O)[C@@H](N)CCCCN)C(=O)N[C@@H](CC(C)C)C(=O)N[C@@H](CCCCN)C(=O)N[C@@H](Cc1ccc(O)cc1)C(=O)N[C@@H](CC(C)C)C(N)=O [BP100]	16 to 32	32	4	4	4	>256	4	64	32	8	64
KKLFKKILKWW-NH2 [BP12]	8 to 16	16	4	4	4	>256	8	64	64	8	128
KKLFKKIWKWL-NH2 [BP11]	4 to 8	8	2	4	4	>256	8	32	8	8	16
